Reference: ChEMBL document CHEMBL1201862, “PubChem BioAssay data set” (2004)
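1) Cells in 96-well plates. 2) Compound, 48 h, 5 concentrations. 3) Linear interpolation between surrounding doses. 4) Unreached endpoint = highest concentration. Abbreviation: GI50, concentration required for 50% inhibition of growth.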 Activity calls are given as the source filed them. Cut-off read from the data, not from the text of the source: active = GI50 up to about 1.1 µM and inactive = higher. Where a SMILES comes first, the peptide text is derived from it. [ ]: non-standard residue; d: D form. The star is where a group is joined. Cbz = O=C(OCc1ccccc1)*; Aib = CC(C)(N)C(=O)O

Experiments:
Assay in all cases: NCI-60 cell line screen, 48 h
BT-549 = tested on: BT-549
CAKI-1 = tested on: CAKI-1
DU-145 = tested on: DU-145
EKVX = tested on: EKVX
HCT-116 = tested on: HCT-116
HCT-15 = tested on: HCT-15
HT-29 = tested on: HT-29
LOX IMVI = tested on: LOX IMVI
MDA-MB-231 = tested on: MDA-MB-231
MDA-MB-435 = tested on: MDA-MB-435
NCI-H23 = tested on: NCI-H23
NCI/ADR-RES = tested on: NCI/ADR-RES
OVCAR-3 = tested on: OVCAR-3
OVCAR-5 = tested on: OVCAR-5
OVCAR-8 = tested on: OVCAR-8
SK-OV-3 = tested on: SK-OV-3
SNB-75 = tested on: SNB-75
T47D = tested on: T47D
TK-10 = tested on: TK-10
HOP-92 = tested on: HOP-92

C[N+](C)(CCNc1ccc(NCC[N+](C)(C)Cc2ccc([N+](=O)[O-])cc2)c2c1C(=O)c1c(O)ccc(O)c1C2=O)Cc1ccc([N+](=O)[O-])cc1
GI50 (BT-549): 26.5 µM (inactive)
GI50 (CAKI-1): > 50 µM (inactive)
GI50 (DU-145): 25.5 µM (inactive)
GI50 (EKVX): > 50 µM (inactive)
GI50 (HCT-116): 9.53 µM (inactive)
GI50 (HCT-15): 35.8 µM
GI50 (HT-29): 17.7 µM (inactive)
GI50 (LOX IMVI): 4.65 µM (inactive)
GI50 (MDA-MB-231): 2.65 µM (inactive)
GI50 (MDA-MB-435): > 50 µM (inactive)
GI50 (NCI-H23): > 50 µM (inactive)
GI50 (NCI/ADR-RES): > 50 µM (inactive)
GI50 (OVCAR-3): > 50 µM (inactive)
GI50 (OVCAR-5): > 50 µM (inactive)
GI50 (OVCAR-8): > 50 µM (inactive)
GI50 (SK-OV-3): > 50 µM (inactive)
GI50 (SNB-75): > 50 µM (inactive)
GI50 (T47D): > 50 µM (inactive)
GI50 (TK-10): > 50 µM (inactive)

CC(C)(C)[Si](C)(C)OCC1OC(n2ccc(N)nc2=O)C(O[Si](C)(C)C(C)(C)C)C1O[Si](C)(C)C(C)(C)C (configuration not stated)
GI50 (BT-549): 1.62 µM (inactive)
GI50 (DU-145): 9.59 µM (inactive)
GI50 (EKVX): 3.22 µM (inactive)
GI50 (HCT-116): 3.14 µM (inactive)
GI50 (HCT-15): 2.23 µM
GI50 (HOP-92): 2.17 µM (inactive)
GI50 (HT-29): 1.56 µM (inactive)
GI50 (LOX IMVI): 1.71 µM (inactive)
GI50 (MDA-MB-231): 10.8 µM (inactive)
GI50 (NCI/ADR-RES): 15.8 µM (inactive)
GI50 (OVCAR-3): 1.73 µM (inactive)
GI50 (OVCAR-5): 1.63 µM (inactive)
GI50 (OVCAR-8): 2.33 µM (inactive)
GI50 (SK-OV-3): 2.75 µM (inactive)
GI50 (SNB-75): 3.79 µM (inactive)
GI50 (T47D): 2.7 µM (inactive)

CC(=O)N1c2cc(/N=N/N(C)C)ccc2NC(=O)CC1C (configuration not stated)
GI50 (BT-549): > 100 µM (inactive)
GI50 (CAKI-1): > 100 µM (inactive)
GI50 (DU-145): > 100 µM (inactive)
GI50 (EKVX): > 100 µM (inactive)
GI50 (HCT-116): > 100 µM (inactive)
GI50 (HCT-15): > 100 µM
GI50 (HT-29): > 100 µM (inactive)
GI50 (MDA-MB-231): > 100 µM (inactive)
GI50 (MDA-MB-435): > 100 µM (inactive)
GI50 (NCI-H23): > 100 µM (inactive)
GI50 (NCI/ADR-RES): > 100 µM (inactive)
GI50 (OVCAR-3): > 100 µM (inactive)
GI50 (OVCAR-5): > 100 µM (inactive)
GI50 (OVCAR-8): > 100 µM (inactive)
GI50 (SK-OV-3): > 100 µM (inactive)
GI50 (SNB-75): > 100 µM (inactive)
GI50 (T47D): > 100 µM (inactive)
GI50 (TK-10): > 100 µM (inactive)

CCOC(=O)c1sc2nc(SC)nc3c2c1NCN3c1ccc2c(c1)OCCCO2
GI50 (BT-549): 51.2 µM (inactive)
GI50 (CAKI-1): > 100 µM (inactive)
GI50 (DU-145): > 100 µM (inactive)
GI50 (EKVX): > 100 µM (inactive)
GI50 (HCT-116): 5.02 µM (inactive)
GI50 (HCT-15): > 100 µM
GI50 (HOP-92): 79.3 µM (inactive)
GI50 (LOX IMVI): > 100 µM (inactive)
GI50 (MDA-MB-231): 24.3 µM (inactive)
GI50 (MDA-MB-435): > 100 µM (inactive)
GI50 (NCI-H23): 70.8 µM (inactive)
GI50 (NCI/ADR-RES): 22.1 µM (inactive)
GI50 (OVCAR-3): 18.6 µM (inactive)
GI50 (OVCAR-5): > 100 µM (inactive)
GI50 (OVCAR-8): 7.46 µM (inactive)
GI50 (SK-OV-3): 15.7 µM (inactive)
GI50 (T47D): 68.1 µM (inactive)
GI50 (TK-10): 53.6 µM (inactive)

COc1c2c(c(CC=C(C)C)c3oc(=O)c(-c4ccc(O)cc4)c(O)c13)OC(C)(C)C=C2 [LONCHOCARPIC ACID]
GI50 (BT-549): 41.8 µM (inactive)
GI50 (CAKI-1): 40.6 µM (inactive)
GI50 (DU-145): 38.1 µM (inactive)
GI50 (EKVX): 22.3 µM (inactive)
GI50 (HCT-116): 15.7 µM (inactive)
GI50 (HCT-15): 11.9 µM
GI50 (HOP-92): 27.2 µM (inactive)
GI50 (HT-29): 30 µM (inactive)
GI50 (LOX IMVI): 34.4 µM (inactive)
GI50 (MDA-MB-231): 24.8 µM (inactive)
GI50 (MDA-MB-435): 15.2 µM (inactive)
GI50 (NCI-H23): 43.9 µM (inactive)
GI50 (NCI/ADR-RES): 28.7 µM (inactive)
GI50 (OVCAR-3): 15.7 µM (inactive)
GI50 (OVCAR-5): 42.9 µM (inactive)
GI50 (OVCAR-8): 29 µM (inactive)
GI50 (T47D): 14.3 µM (inactive)
GI50 (TK-10): 32.4 µM (inactive)

Oc1ccc2ccccc2c1/N=N\c1cccc2ccccc12
GI50 (CAKI-1): > 100 µM (inactive)
GI50 (DU-145): > 100 µM (inactive)
GI50 (EKVX): 36 µM (inactive)
GI50 (HCT-116): > 100 µM (inactive)
GI50 (HCT-15): > 100 µM
GI50 (HOP-92): > 100 µM (inactive)
GI50 (HT-29): > 100 µM (inactive)
GI50 (LOX IMVI): > 100 µM (inactive)
GI50 (MDA-MB-231): > 100 µM (inactive)
GI50 (MDA-MB-435): > 100 µM (inactive)
GI50 (NCI-H23): > 100 µM (inactive)
GI50 (NCI/ADR-RES): > 100 µM (inactive)
GI50 (OVCAR-3): > 100 µM (inactive)
GI50 (OVCAR-5): > 100 µM (inactive)
GI50 (OVCAR-8): > 100 µM (inactive)
GI50 (SK-OV-3): > 100 µM (inactive)
GI50 (SNB-75): > 100 µM (inactive)
GI50 (T47D): > 100 µM (inactive)
GI50 (TK-10): > 100 µM (inactive)

CC(C)(NC(=O)C(C)(C)NC(=O)OCc1ccccc1)C(=O)O (Cbz-[Aib]-[Aib]-OH)
GI50 (CAKI-1): > 100 µM (inactive)
GI50 (DU-145): > 100 µM (inactive)
GI50 (EKVX): > 100 µM (inactive)
GI50 (HCT-116): > 100 µM (inactive)
GI50 (HCT-15): > 100 µM
GI50 (HOP-92): > 100 µM (inactive)
GI50 (HT-29): > 100 µM (inactive)
GI50 (LOX IMVI): > 100 µM (inactive)
GI50 (MDA-MB-231): > 100 µM (inactive)
GI50 (MDA-MB-435): > 100 µM (inactive)
GI50 (NCI-H23): > 100 µM (inactive)
GI50 (NCI/ADR-RES): > 100 µM (inactive)
GI50 (OVCAR-3): > 100 µM (inactive)
GI50 (OVCAR-5): > 100 µM (inactive)
GI50 (OVCAR-8): > 100 µM (inactive)
GI50 (SK-OV-3): > 100 µM (inactive)
GI50 (SNB-75): > 100 µM (inactive)
GI50 (T47D): > 100 µM (inactive)
GI50 (TK-10): > 100 µM (inactive)
